In patent publication US9533965B2, “2-arylbenzofuran-7-formamide compounds, preparation method and use thereof” (SHANGHAI INSTITUTE OF MATERIA MEDICA, CHINESE ACADEMY OF …, priority 2012, dated 2017):
Several values for one entry are separate records, joined by “and”; a condition that tells them apart may be missing. Equal values may be shown once. Read-outs that look alike come from different tables or passages of the source.

Experiments:
[1] = system: Chinese hamster lung fibroblast cell line VC8 (BRCA2−/−); experiment: In vitro cell proliferation inhibition (MTT), VC8 cells; type: cell-based; settings: read-out: VC8 cell IC50
[2] = system: wild type cell line V79; experiment: In vitro cell proliferation inhibition (MTT), V79 cells; type: cell-based, Chinese hamster; settings: Cricetulus griseus, read-out: V79 cell IC50
[3] = target: PARP1 (Homo sapiens, UniProt P09874); experiment: PARP1 enzymatic inhibition at molecular levels (ELISA); settings: ELISA IC50, PARP1 enzyme, molecular level
Chain of PARP1 (P09874 whole entry): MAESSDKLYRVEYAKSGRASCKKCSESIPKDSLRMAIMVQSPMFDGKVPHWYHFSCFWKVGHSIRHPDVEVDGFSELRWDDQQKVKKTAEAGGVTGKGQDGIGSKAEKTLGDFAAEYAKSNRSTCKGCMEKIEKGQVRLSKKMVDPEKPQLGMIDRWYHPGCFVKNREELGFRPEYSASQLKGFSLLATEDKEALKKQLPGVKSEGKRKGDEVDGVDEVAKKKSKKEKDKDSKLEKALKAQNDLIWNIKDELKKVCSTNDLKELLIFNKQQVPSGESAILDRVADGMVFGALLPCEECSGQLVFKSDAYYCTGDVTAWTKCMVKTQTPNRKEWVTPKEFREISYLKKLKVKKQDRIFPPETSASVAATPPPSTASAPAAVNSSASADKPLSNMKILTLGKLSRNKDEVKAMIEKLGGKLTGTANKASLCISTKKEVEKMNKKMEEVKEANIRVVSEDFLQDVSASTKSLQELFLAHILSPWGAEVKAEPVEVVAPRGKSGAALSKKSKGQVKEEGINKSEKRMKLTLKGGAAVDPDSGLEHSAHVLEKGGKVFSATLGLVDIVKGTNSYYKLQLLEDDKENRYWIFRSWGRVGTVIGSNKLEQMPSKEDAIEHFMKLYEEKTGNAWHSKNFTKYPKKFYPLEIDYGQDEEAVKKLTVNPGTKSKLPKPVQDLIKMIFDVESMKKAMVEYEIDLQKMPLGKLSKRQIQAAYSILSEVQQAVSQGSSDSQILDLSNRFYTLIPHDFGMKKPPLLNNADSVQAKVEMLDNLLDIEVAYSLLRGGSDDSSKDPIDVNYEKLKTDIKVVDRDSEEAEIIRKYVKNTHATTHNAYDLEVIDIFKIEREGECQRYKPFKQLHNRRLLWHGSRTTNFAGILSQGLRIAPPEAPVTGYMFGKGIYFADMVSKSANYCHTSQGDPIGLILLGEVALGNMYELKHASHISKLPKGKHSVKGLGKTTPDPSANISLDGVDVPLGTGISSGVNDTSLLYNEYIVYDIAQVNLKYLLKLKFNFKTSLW

[4] = compound during phase II clinical trials; cited from earlier work
[5] = Cricetulus griseus, V-C8, 72 h, MTT, 72 h, VC8 (BRCA2−/−)

IC50 [3]	SMILES	IC50 [1, 5] [nM]	IC50 ([1]; MTT, 72 h, VC8 (BRCA2−/−)) [nM]	IC50 ([2]; MTT, 72 h, wild type V79) [nM]	IC50 ([1]; Cricetulus griseus, V-C8, 72 h) [nM]	IC50 ([2]; V79, 72 h) [nM]	oral bioavailability of rats [4] [%]
32 nM and 18.8 nM and 25 nM	CC(C)NCc1ccc(-c2cc3cc(F)cc(C(N)=O)c3o2)cc1 [compound 5o, 5-fluoro-2-[4-(isopropylaminomethyl)phenyl]benzofuran-7-carboxamide]	1090	941	> 10000			
83 nM and 105 nM and 187 nM	CN1CCN(Cc2ccc(-c3cc4cc(F)cc(C(N)=O)c4o3)cc2)CC1 [compound 5g, 5-fluoro-2-{4-[(4-methyl-1-piperazino)methyl]phenyl}benzofuran-7-carboxamide]	2080	2140	> 10000			
182 nM and 107 nM and 393 nM	NC(=O)c1cc(F)cc2cc(-c3ccc(CNC4CCNCC4)cc3)oc12 [compound 5l, 5-fluoro-2-{4-[(4-piperidyl)aminomethyl]phenyl}-benzofuran-7-carboxamide]	8310	8220	> 10000			
18 nM and 31 nM and 73 nM	NC(=O)c1cc(F)cc2cc(-c3ccc(CNC4CC4)cc3)oc12 [compound 5n, 5-fluoro-2-[4-(cyclopropylaminomethyl)phenyl]benzofuran-7-carboxamide]			> 10000			
14.8 nM and 20.8 nM and 74 nM	CNCc1ccc(-c2cc3cc(F)cc(C(N)=O)c3o2)cc1F [compound 5e, 5-fluoro-2-{4-[(methylamino)methyl]-3-fluorophenyl}benzofuran-7-carboxamide]	2080	1510	> 10000			
104 nM and 101 nM and 207 nM	CN1CCCN(Cc2ccc(-c3cc4cc(F)cc(C(N)=O)c4o3)cc2)CC1 [compound 5i, 5-fluoro-2-{4-[(4-methyl-1-homopiperazino)methyl]phenyl}benzofuran-7-carboxamide]			> 10000			
9250 nM	CN(C)Cc1ccc(-c2oc3c(C(N)=O)cc(F)cc3c2Cl)cc1 [compound 7a, 3-chloro-5-fluoro-2-{4-[(dimethylamino)methyl]phenyl}benzofuran-7-carboxamide]						
49 nM and 9.5 nM and 17 nM	NC(=O)c1cc(F)cc2cc(-c3ccc(CN[C@@H]4CCOC4)cc3)oc12 [compound 5m, (R)-5-fluoro-2-{4-[(3-tetrahydrofurylamino)methyl]phenyl}benzofuran-7-carboxamide]	1150	1180	> 10000			
	O=C(c1cc(Cc2n[nH]c(=O)c3ccccc23)ccc1F)N1CCN(C(=O)C2CC2)CC1 [AZD2281, Olaparib, reference compound]				820 ± 330	> 10000	11.1
	NC(=O)c1cc(F)cc2cc(-c3ccc(CN4CCOCC4)cc3)oc12 [compound 5j, 5-fluoro-2-{4-[(1-morpholinyl)methyl]phenyl}benzofuran-7-carboxamide]			> 10000			
22 nM and 8.9 nM and 40 nM	CNCc1ccc(-c2cc3cc(F)cc(C(N)=O)c3o2)c(F)c1 [compound 5p, 5-fluoro-2-{4-[(methylamino)methyl]-2-fluorophenyl}benzofuran-7-carboxamide]	1360	1620	> 10000			
	NC(=O)c1cc(F)cc2cc(-c3ccc(CN4CCCCC4)cc3)oc12 [compound 5h, 5-fluoro-2-{4-[(piperidin-1-yl)methyl]phenyl}benzofuran-7-carboxamide]	2600	2010	> 10000			
37 nM and 34.2 nM and 72 nM	CNCc1ccc(-c2cc3cc(F)cc(C(N)=O)c3o2)cn1 [compound 5c, 5-fluoro-2-{6-[(methylamino)methyl]-3-pyridyl}benzofuran-7-carboxamide]			> 10000			
	NC(=O)c1cc(F)cc2cc(-c3ccc(CN4CCCC4)cc3)oc12 [5f, 5-fluoro-2-{4-[(pyrrolidin-1-yl)methyl]phenyl}benzofuran-7-carboxamide]	3360	2620	> 10000			
1060 nM and 2060 nM and 1520 nM	NC(=O)c1cc(F)cc2cc(-c3ccc(CN4CCSCC4)cc3)oc12 [compound 5k, 5-fluoro-2-{4-[(thiomorpholino)methyl]phenyl}benzofuran-7-carboxamide]	> 10000		> 10000			
11.8 ± 8.9 nM	CN(C)Cc1ccc(-c2cc3cc(F)cc(C(N)=O)c3o2)cc1 [compound 5a, 5-fluoro-2-{4-[(dimethylamino)methyl]phenyl}benzofuran-7-carboxamide]	750 ± 100		> 10000			
23 nM and 27.9 nM and 58 nM	CNCc1ccc(-c2cc3cc(F)cc(C(N)=O)c3o2)nc1 [compound 5d, 5-fluoro-2-{5-[(methylamino)methyl]-2-pyridyl}benzofuran-7-carboxamide]	3270	1740	> 10000			
